Data published in patent US5614504A, “Method of making inosine monophosphate derivatives and immunopotentiating uses thereof” (The University of South Florida, priority 1995, dated 1997).

Columns and labels:
[1] = system: human peripheral blood lymphocytes (HPBL); assay: Response of normal HPBL to PWM; assay type: cell-based; settings: PWM 0.5 μg/ml
Experimental: (§1) In vitro: Both human peripheral blood lymphocytes (HPBL) and mouse spleen lymphocytes (MSL) were employed. Proliferation was assayed by tritiated thymidine incorporation, as described in Hadden et al. (1975) and Hadden et al. (1986). For HPBL transformation, PHA and PWM were used at 0.5 μg/ml. For MSL transformation, Con A was used at 0.5 μg/ml, phytohemagglutinin (PHA, Murex Diagnostics, Atlanta, Ga.) at 0.5 μg/ml and lipopolysaccharide endotoxin (LPS, Sigma, St. Louis, Mo.) at 10 μg/ml. When protected-IMP derivatives were added, they were added at the onset of culture at varying concentrations ranging from 0.1 μg/ml to 100 μg/ml.
(§2) Murine splenocytes were obtained from BALB/c mice, 4-12 months old, by standard procedures (Hadden et al., 1975). They were cultured in microwell plates at 1.5×10^6 cells/ml of minimal essential media (MEM, Gibco Labs, Grand Island, N.Y.) with 5% fetal calf serum (FCS, Hyclone Labs, Logan, Utah) and tested for their proliferative response to mitogens as measured by incorporation of (^3 H) tritiated thymidine (New England Nuclear, Wilmington Del., […]; 2.5 μCi/ml) during a terminal pulse followed by liquid scintillation spectrometry. Human cells were seeded at […] and cultured for 48 hours with an 18 hour pulse with ^3 H-thymidine.
Normal human peripheral blood lymphocytes (HPBL) were stimulated with the mitogenic agents PHA or PWM. […]

murine splenocytes = assay: Murine splenocyte proliferation with PHA or LPS; assay type: cell-based, BALB/c mice; settings: for tritiated thymidine incorporation, LPS 10 μg/ml / tritiated thymidine incorporation, PHA 0.5 μg/ml: mean CPM±SEM
Experimental: as §1, §2
In a further experiment, murine splenocytes were incubated with PHA or LPS and MIMP (1-100 μg/ml). […] Splenocyte responses to PHA preferentially reflect T lymphocyte responses, confirming the responses seen with ConA. The LPS responses also parallel the previous experiment.
The data was obtained from four different animals and represent quadruplicate samples for each concentration. They are expressed as mean CPM±SEM, with * showing a significance of p<0.05 and ** showing p<0.01.

[2] = system: Friend Leukemia Virus (FLV); assay: Survival of mice infected with Friend Leukemia Virus; assay type: in vivo, BALB/c mice; settings: 1 mg/kg/day i.p. day 3 to day 13; P<0.004 Wilcoxon
Experimental: Control mice were treated with saline intraperitoneally from day 3 to day 13 following infection, and Me-IMP treated mice were treated with 1 mg/kg/day from day 3 to day 13, and the day of death was recorded.

γ-IFN = assay: PHA-induced γ-IFN production; assay type: cell-based; settings: preliminary data

COP(=O)(O)OC[C@H]1O[C@@H](n2cnc3c(=O)[nH]cnc32)[C@H](O)[C@@H]1O [Me-IMP, Methyl-5'-inosine-monophosphate]
effect on PWM response of HPBL [1]: not affected
tritiated thymidine incorporation, LPS 10 μg/ml (murine splenocytes; MIMP 1 μg/ml): 47261 ± 997 CPM
tritiated thymidine incorporation, PHA 0.5 μg/ml (murine splenocytes; MIMP 1 μg/ml): 106647 ± 4917 CPM
tritiated thymidine incorporation, LPS 10 μg/ml (murine splenocytes; MIMP 10 μg/ml, p<0.05): 57481 ± 2343 CPM
tritiated thymidine incorporation, PHA 0.5 μg/ml (murine splenocytes; MIMP 10 μg/ml, p<0.05): 117247 ± 6500 CPM
tritiated thymidine incorporation, PHA 0.5 μg/ml (murine splenocytes; MIMP 100 μg/ml, p<0.01): 124801 ± 6630 CPM
tritiated thymidine incorporation, LPS 10 μg/ml (murine splenocytes; MIMP 100 μg/ml, p<0.05): 55153 ± 6176 CPM
splenocyte responses in the absence of mitogens (murine splenocytes; MIMP 1-100 μg/ml): did not affect
proliferative responses in the presence of mitogens (murine splenocytes; MIMP 1-100 μg/ml, PHA or LPS): progressively and significantly augumented
mean survival time (MST) [2]: larger mean survival time
effect on PHA-induced γ-IFN (γ-IFN): only a small effect
